The target in experiment [1] is Glutamate receptor 3 (Rattus norvegicus, UniProt P19492).
For experiment [2], the target named is Glutamate receptor 3 (Homo sapiens, UniProt P42263).

Where “and” joins values, the source holds several entries; their conditions need not be identical. Identical values can stand only once.

Glutamate receptor 3 (Rattus norvegicus, UniProt P19492), sequence (P19492 whole entry): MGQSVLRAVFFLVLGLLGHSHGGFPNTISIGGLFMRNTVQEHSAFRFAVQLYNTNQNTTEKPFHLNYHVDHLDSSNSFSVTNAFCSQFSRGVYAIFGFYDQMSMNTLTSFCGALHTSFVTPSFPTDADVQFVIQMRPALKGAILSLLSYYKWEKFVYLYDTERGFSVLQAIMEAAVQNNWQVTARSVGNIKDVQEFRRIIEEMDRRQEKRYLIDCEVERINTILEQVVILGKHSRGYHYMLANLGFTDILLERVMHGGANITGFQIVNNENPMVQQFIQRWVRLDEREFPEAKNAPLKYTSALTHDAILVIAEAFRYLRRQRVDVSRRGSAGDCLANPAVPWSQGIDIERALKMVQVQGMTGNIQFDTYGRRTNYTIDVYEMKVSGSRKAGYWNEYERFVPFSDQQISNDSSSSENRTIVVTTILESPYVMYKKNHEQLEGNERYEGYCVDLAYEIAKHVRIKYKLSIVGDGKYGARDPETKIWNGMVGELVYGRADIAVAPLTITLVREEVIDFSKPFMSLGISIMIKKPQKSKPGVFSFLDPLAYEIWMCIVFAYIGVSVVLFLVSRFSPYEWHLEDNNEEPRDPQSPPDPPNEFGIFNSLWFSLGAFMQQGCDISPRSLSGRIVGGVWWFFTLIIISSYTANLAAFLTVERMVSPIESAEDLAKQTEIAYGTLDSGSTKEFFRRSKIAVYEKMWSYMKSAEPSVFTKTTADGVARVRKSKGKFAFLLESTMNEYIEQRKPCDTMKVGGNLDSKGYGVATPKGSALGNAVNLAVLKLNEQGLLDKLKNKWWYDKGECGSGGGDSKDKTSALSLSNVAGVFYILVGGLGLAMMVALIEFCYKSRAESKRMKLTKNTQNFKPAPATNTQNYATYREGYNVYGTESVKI
Glutamate receptor 3 (Homo sapiens, UniProt P42263), sequence (P42263 whole entry): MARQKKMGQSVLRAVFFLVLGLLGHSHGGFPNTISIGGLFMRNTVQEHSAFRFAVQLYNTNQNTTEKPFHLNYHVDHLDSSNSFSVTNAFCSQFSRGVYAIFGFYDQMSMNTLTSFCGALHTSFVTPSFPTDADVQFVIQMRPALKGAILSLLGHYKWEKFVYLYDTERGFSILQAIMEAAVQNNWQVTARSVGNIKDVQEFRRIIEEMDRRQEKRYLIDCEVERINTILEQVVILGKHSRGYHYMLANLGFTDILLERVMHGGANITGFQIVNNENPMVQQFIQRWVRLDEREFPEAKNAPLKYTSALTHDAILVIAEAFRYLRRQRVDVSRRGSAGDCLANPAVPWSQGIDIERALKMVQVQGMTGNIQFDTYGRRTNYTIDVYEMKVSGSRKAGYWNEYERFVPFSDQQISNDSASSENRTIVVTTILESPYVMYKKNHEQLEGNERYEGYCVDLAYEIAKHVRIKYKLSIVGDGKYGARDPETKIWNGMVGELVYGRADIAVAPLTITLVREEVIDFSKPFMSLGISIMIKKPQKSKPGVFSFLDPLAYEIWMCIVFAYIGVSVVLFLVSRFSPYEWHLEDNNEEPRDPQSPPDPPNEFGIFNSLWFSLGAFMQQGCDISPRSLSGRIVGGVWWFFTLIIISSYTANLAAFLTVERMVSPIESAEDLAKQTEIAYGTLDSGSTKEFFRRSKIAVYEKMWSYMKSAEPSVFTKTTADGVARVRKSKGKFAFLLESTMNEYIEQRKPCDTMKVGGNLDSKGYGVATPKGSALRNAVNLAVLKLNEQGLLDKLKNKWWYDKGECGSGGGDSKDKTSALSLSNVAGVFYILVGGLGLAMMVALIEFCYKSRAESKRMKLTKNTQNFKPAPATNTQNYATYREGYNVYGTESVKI

Turning to `C/C(=C\C=C\[C@@H](C)C(=O)O)[C@H]1CN[C@H](C(=O)O)[C@H]1CC(=O)O`, the Ki (commonly a measure of affinity in units of concentration, obtained from inhibition or displacement) on Glutamate receptor 3 [1] is 3.54 µM; at Glutamate receptor 3 [2], 2.77 µM and 4.59 µM.

In the case of `CN1Cc2c(S(=O)(=O)N(C)C)cc3c(c2C1)NC(=O)C3N=O` (centres undefined), the Ki on Glutamate receptor 3 [1] was 0.782 µM; at Glutamate receptor 3 [2], 1.43 µM and > 10 µM and 8.45 µM.

In the case of `Cc1onc(OCC(=O)O)c1CC(N)C(=O)O` (centres undefined) [2-Amino-3-(3-carboxymethoxy-5-methyl-isoxazol-4-yl)-propionic acid(AMOA)], the Ki on Glutamate receptor 3 [1] and on Glutamate receptor 3 [2] was above 10 µM each time.

On Glutamate receptor 3 [1], `N#Cc1cc2nc(O)c(O)nc2cc1[N+](=O)[O-]` [7-Cyano-3-hydroxy-6-nitro-quinoxalin-2-ol anion] showed a Ki of 0.47 µM. For `N[C@@H](Cn1cc(F)c(=O)[nH]c1=O)C(=O)O` [(S)-5-Fluorowillardiine], at Glutamate receptor 3 [1], the Ki turned out to be 0.018 µM. With `NC(CCC(=O)NCS(=O)(=O)O)C(=O)O` (centres undefined) [CAS_90237-02-8], the Ki on Glutamate receptor 3 [1] and at Glutamate receptor 3 [2] was above 10 µM throughout. Turning to `O=C1N=c2cc(N(O)O)c(-n3ccnc3)cc2=NC1=O` [CAS_3035216], the Ki at Glutamate receptor 3 [1] was 0.407 µM; on Glutamate receptor 3 [2], 0.63 µM and 2.45 µM and 1.96 µM. Take `C=C(C)[C@H]1CN[C@H](C(=O)O)[C@H]1CC(=O)O` [Digensaeure]: the Ki on Glutamate receptor 3 [2] is 2.63 µM and 8.05 µM. On Glutamate receptor 3 [2], `CC(C)[C@H](NC(=O)[C@H](CCCCN)NC(=O)[C@@H](Cc1c[nH]c2ccccc12)NC(=O)[C@H](Cc1ccc(O)cc1)NC(=O)[C@H](CS)NC(=O)[C@H](N)Cc1ccc2ccccc2c1)C(=O)N[C@@H](CS)C(=O)N[C@@H](Cc1ccc2ccccc2c1)C(N)=O` [Dnal,Cys,Tyr,DTrp,Lys,Val,Cys,Nal-nh2] gave a Ki of 0.494 µM. That is a sub-micromolar value. With `CC1=NN=C(c2ccc(N)cc2)c2cc3c(cc2C1)OCO3` [GYKI-52466], the Ki at Glutamate receptor 3 [1] and on Glutamate receptor 3 [2] was above 10 µM throughout. Take `O=C1N=c2cc([N+](=O)[O-])c([N+](=O)[O-])cc2=NC1=O` [NSC_3140]: at Glutamate receptor 3 [2], the Ki was 2.09 µM and 1.66 µM. For `O=C1N=c2c3c(ccc2=C1NO)C([N+](=O)[O-])CCC3` (centres undefined) [NSC_5311098], the Ki at Glutamate receptor 3 [1] and on Glutamate receptor 3 [2] was above 10 µM throughout.

For the origin of these results see BindingDB's records for PubMed 9536032 (Sibia Neurosciences, 1998).
